Data from patent publication US20230278972A1, “SUBSTITUTED HALOALKYL SULFONANILIDE HERBICIDES” (FMC Corporation, priority 2020, published 2023).
Like-named read-outs stand apart in the source and are kept apart here.

Assays:
Type in all cases: in vivo
soybean (Glycine max) = test: Test A1 preemergence, soybean
In short: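 Pre: seeds in loam/sand blend, directed soil spray. Post: potted plants, same soil, 2–10 cm, 1–2 leaf stage. Chemicals in non-phytotoxic solvent + surfactant for both.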

[1] = system: ragweed (common ragweed, Ambrosia artemisiifolia); test: Test A preemergence, ragweed; settings: Ambrosia artemisiifolia, pre-emergence, 240 h, Preemergence; for pest or weed control at 125 g/ha: 125 g ai/ha, visual injury, approx. 10 days; for pest or weed control at 500 g/ha: 500 g ai/ha
In short: (§1)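 Directed soil spray at planting gave the preemergence treatment, while foliar application to one- to two-leaf seedlings (2–10 cm) gave the postemergence one; pots held a loam and sand mixture and chemicals were carried in a non-phytotoxic solvent with surfactant.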

corn (Zea mays) = test: Test A postemergence, corn; settings: Zea mays, post-emergence, 240 h, Postemergence, 0 to 100 scale (0 no effect, 100 complete control); for Corn plant response rating (crop injury, 0 = no effect, 100 = complete kill) at 125 g/ha: 125 g ai/ha; for plant injury at 500 g/ha: visual injury vs untreated controls after approx. 10 days, read-out: Corn plant response rating
In short: as §1

[2] = system: Foxtail, Giant (giant foxtail, Setaria faberi); test: Test A preemergence, Foxtail, Giant; settings: Setaria faberi, pre-emergence, 240 h, Preemergence; for pest or weed control at 125 g/ha: 125 g ai/ha, visual injury, approx. 10 days; for pest or weed control at 500 g/ha: 500 g ai/ha
In short: as §1

[3] = system: Ryegrass, Italian (Italian ryegrass, Lolium multiflorum); test: Test A postemergence, Ryegrass, Italian; settings: Lolium multiflorum, post-emergence, 240 h, Postemergence, 0 to 100 scale (0 no effect, 100 complete control); for pest or weed control at 125 g/ha: 125 g ai/ha; for pest or weed control at 500 g/ha: 500 g ai/ha
In short: as §1

[4] = 31 g ai/ha, 0 to 100 scale (0 no effect, 100 complete control)
[5] = 125 g ai/ha, 0 to 100 scale, 0 no effect, 100 complete control
[6] = 0 to 100 scale (0 no effect, 100 complete control), read-out: Plant response rating, Ragweed
[7] = 0 to 100 scale (0 no effect, 100 complete control), read-out: Plant response rating, Foxtail, Giant
[8] = read-out: Plant response rating, Ryegrass, Italian
[9] = visual injury vs untreated controls after approx. 10 days, read-out: Ryegrass, Italian plant response rating
[10] = visual injury on 0 to 100 scale (0 no effect, 100 complete control), approximately 10 days, read-out: Ragweed plant response rating
[11] = visual injury on 0 to 100 scale (0 no effect, 100 complete control), approximately 10 days, read-out: Foxtail, Giant plant response rating

Structure (SMILES)	Plant response rating, Soybean (soybean (Glycine max); [4])	Plant response rating, Soybean (soybean (Glycine max); [5])	further results
Cc1cc(C)c(N(COC(=O)C(C)(C)C)S(=O)(=O)C(F)(F)F)cc1C1=NOC2CCCCCC12 (single isomer, unassigned) [Compound 294]	0	0	
Cc1cc(C)c(C2=NOC3(CCCCC3)C2)cc1NS(=O)(=O)C(F)(F)F [Compound 197, N-[2,4-Dimethyl-5-(1-oxa-2-azaspiro[4.5]dec-2-en-3-yl)phenyl]-1,1,1-trifluoromethanesulfonamide]			pest or weed control at 125 g/ha [1, 6]: 80%; pest or weed control at 500 g/ha [1, 6]: 90%; Corn plant response rating (crop injury, 0 = no effect, 100 = complete kill) at 125 g/ha (corn (Zea mays)): 20%; plant injury at 500 g/ha (corn (Zea mays); 500 g ai/ha): 80%; pest or weed control at 125 g/ha [2, 7]: 100%; pest or weed control at 500 g/ha [2, 7]: 100%; pest or weed control at 125 g/ha [3, 8]: 50%; pest or weed control at 500 g/ha [3, 9]: 60%
Cc1cc(C)c(C2=NOC3(CCCC3)C2)cc1NS(=O)(=O)C(F)(F)F [Compound 207, N-[2,4-Dimethyl-5-(1-oxa-2-azaspiro[4.4]non-2-en-3-yl)phenyl]-1,1,1-trifluoromethanesulfonamide]			pest or weed control at 125 g/ha [1, 6]: 20%; pest or weed control at 500 g/ha [1, 6]: 70%; Corn plant response rating (crop injury, 0 = no effect, 100 = complete kill) at 125 g/ha (corn (Zea mays)): 20%; plant injury at 500 g/ha (corn (Zea mays); 500 g ai/ha): 70%; pest or weed control at 125 g/ha [2, 7]: 90%; pest or weed control at 500 g/ha [2, 7]: 100%; pest or weed control at 125 g/ha [3, 8]: 40%; pest or weed control at 500 g/ha [3, 9]: 90%
Cc1cc(Cl)c(NS(=O)(=O)C(F)(F)F)cc1C(=O)N1CCC(F)(F)CC1 [Compound 229, N-[2-Chloro-5-[(4,4-difluoro-1-piperidinyl)carbonyl]-4-methylphenyl]-1,1,1-trifluoromethanesulfonamide]			pest or weed control at 125 g/ha [1, 6]: 90%; pest or weed control at 500 g/ha [1, 10]: 100%; Corn plant response rating (crop injury, 0 = no effect, 100 = complete kill) at 125 g/ha (corn (Zea mays)): 20%; plant injury at 500 g/ha (corn (Zea mays); 500 g ai/ha): 70%; pest or weed control at 125 g/ha [2, 7]: 60%; pest or weed control at 500 g/ha [2, 11]: 100%; pest or weed control at 125 g/ha [3, 8]: 30%; pest or weed control at 500 g/ha [3, 9]: 70%
Cc1cc(C)c(C(=O)N2CCC(F)(F)CC2)cc1NS(=O)(=O)C(F)(F)F [Compound 241, N-[5-[(4,4-Difluoro-1-piperidinyl)carbonyl]-2,4-dimethylphenyl]-1,1,1-trifluoromethanesulfonamide]			pest or weed control at 125 g/ha [1, 6]: 70%; pest or weed control at 500 g/ha [1, 10]: 90%; Corn plant response rating (crop injury, 0 = no effect, 100 = complete kill) at 125 g/ha (corn (Zea mays)): 10%; Corn plant response rating (crop injury, 0 = no effect, 100 = complete kill) at 500 g/ha (corn (Zea mays); 500 g ai/ha, visual injury approx. 10 days): 20%; pest or weed control at 125 g/ha [2, 7]: 80%; pest or weed control at 500 g/ha [2, 11]: 100%; pest or weed control at 125 g/ha [3, 8]: 0%; pest or weed control at 500 g/ha ([3]; visual injury approx. 10 days, read-out: Plant response rating, Ryegrass, Italian): 70%
Cc1cc(C)c(-n2nccc(C)c2=O)cc1NS(=O)(=O)C(F)(F)F [Compound 281]	0	80	
Cc1c(NS(=O)(=O)C(F)(F)F)cc(C(=O)N(C)C)c(C)c1Cl [Compound 287]	0	30	
Cc1c(NS(=O)(=O)C(F)(F)F)cc(C(=O)N(C)C)c(C)c1C [Compound 288]	30	40	
Cc1c(NS(=O)(=O)C(F)(F)F)cc(C(=O)N2CCOCC2)c(C)c1C [Compound 289, 1,1,1-Trifluoro-N-[2,3,4-trimethyl-5-(4-morpholinylcarbonyl)phenyl]methanesulfonamide]	20	60	
Cc1cc(C)c(C2=NOC3CCCCCC23)cc1NS(=O)(=O)C(F)(F)F (stereo not shown) [Compound 292]	0	40	
Cc1cc(C)c(N(C(=O)OC(C)C)S(=O)(=O)C(F)(F)F)cc1C1=NOC2CCCC12 (stereo not shown) [Compound 295]	0	0	
Cc1cc(C)c(N(S(=O)(=O)C(F)(F)F)S(=O)(=O)C(F)(F)F)cc1C1=NOC2COCC12 (stereo not shown) [Compound 296]	20	30	
Cc1cc(C)c(C2=NOC3COCC23)cc1NS(=O)(=O)C(F)(F)F (stereo not shown) [Compound 297]	0	50	
Cc1cc(C)c(N(COC(=O)C(C)(C)C)S(=O)(=O)C(F)(F)F)cc1C1=NOC2COCC12 (stereo not shown) [Compound 301]	0	20	
Cc1cc(Br)c(C2=NOC3CCCC23)cc1NS(=O)(=O)C(F)(F)F (stereo not shown) [Compound 302]	0	20	
COc1cc(C)c(C2=NOC3(CCCC3)C2)cc1NS(=O)(=O)C(F)(F)F [Compound 304]	0	0	

Structure (SMILES)	Plant response rating, Soybean (soybean (Glycine max); [4])	Plant response rating, Soybean (soybean (Glycine max); [5])	further results
CCc1cc(C)c(NS(=O)(=O)C(F)(F)F)cc1C1=NOC2CCCC12 (stereo not shown) [Compound 305]	0	40	
Cc1cc(C(F)(F)F)c(C2=NOC3CCCC23)cc1NS(=O)(=O)C(F)(F)F (stereo not shown) [Compound 306]	0	0	
Cc1cc(C)c(N(COC(=O)C(C)C)S(=O)(=O)C(F)(F)F)cc1C1=NOC2CCCC12 (stereo not shown) [Compound 308]	0	30	
Cc1cc(F)c(C2=NOC3CCCC23)cc1NS(=O)(=O)C(F)(F)F (stereo not shown) [Compound 310]	0	0	
CCc1cc(C)c(C2=NOC3(CCCC3)C2)cc1NS(=O)(=O)C(F)(F)F [Compound 311]	0	0	
COc1cc(C)c(NS(=O)(=O)C(F)(F)F)cc1C1=NOC2CCCC12 (stereo not shown) [Compound 312]	0	50	
Cc1cc(C2CC2)c(NS(=O)(=O)C(F)(F)F)cc1C1=NOC2(CCCC2)C1 [Compound 313]	0	0	
Cc1cc(C)c(N(COC(=O)OC(C)C)S(=O)(=O)C(F)(F)F)cc1C1=NOC2CCCC12 (stereo not shown) [Compound 314]	20	40	
COC(=O)OCN(c1cc(C2=NOC3CCCC23)c(C)cc1C)S(=O)(=O)C(F)(F)F (stereo not shown) [Compound 315]	40	50	
Cc1cc(C)c(N(COC(=O)OC(C)(C)C)S(=O)(=O)C(F)(F)F)cc1C1=NOC2CCCC12 (stereo not shown) [Compound 316]	0	0	
Cc1cc(C)c(N(COC(=O)N(C)C)S(=O)(=O)C(F)(F)F)cc1C1=NOC2CCCC12 (stereo not shown) [Compound 317]	0	0	
COCC1CC(c2cc(NS(=O)(=O)C(F)(F)F)c(C)cc2C)=NO1 (stereo not shown) [Compound 319]	20	30	
Cc1c(C(=O)N(C)C)cc(NS(=O)(=O)C(F)(F)F)c(Cl)c1F [Compound 320]	20	40	
Cc1c(C(=O)N2CCOCC2)cc(NS(=O)(=O)C(F)(F)F)c(Cl)c1F [Compound 321]	60	60	
Cc1cc(C)c(C2=NOC(OCC(C)C)C2)cc1NS(=O)(=O)C(F)(F)F (stereo not shown) [Compound 322]	0	0	
CCCCOC1CC(c2cc(NS(=O)(=O)C(F)(F)F)c(C)cc2C)=NO1 (stereo not shown) [Compound 323]	0	0	
